Read-outs that look alike come from different tables or passages of the source.
How the values were obtained:
atherosclerotic lesions = test system: atherosclerotic lesions; parameters: method as in PMID 17803269, PMID 14718664; conditions: orally active; apolipoprotein E knockout mice and low density lipoprotein receptor knockout mice; cited from earlier work
SOAT2 [1] = molecular target: T1, SOAT2 (Chlorocebus aethiops, UniProt O77759); conditions: enzyme-based assay; African green monkey; cited from earlier work
T1 construct: expressed in transfected cells; host or cells: CHO cells (AC29, SOAT-deficient)
T1 sequence (O77759 1-526): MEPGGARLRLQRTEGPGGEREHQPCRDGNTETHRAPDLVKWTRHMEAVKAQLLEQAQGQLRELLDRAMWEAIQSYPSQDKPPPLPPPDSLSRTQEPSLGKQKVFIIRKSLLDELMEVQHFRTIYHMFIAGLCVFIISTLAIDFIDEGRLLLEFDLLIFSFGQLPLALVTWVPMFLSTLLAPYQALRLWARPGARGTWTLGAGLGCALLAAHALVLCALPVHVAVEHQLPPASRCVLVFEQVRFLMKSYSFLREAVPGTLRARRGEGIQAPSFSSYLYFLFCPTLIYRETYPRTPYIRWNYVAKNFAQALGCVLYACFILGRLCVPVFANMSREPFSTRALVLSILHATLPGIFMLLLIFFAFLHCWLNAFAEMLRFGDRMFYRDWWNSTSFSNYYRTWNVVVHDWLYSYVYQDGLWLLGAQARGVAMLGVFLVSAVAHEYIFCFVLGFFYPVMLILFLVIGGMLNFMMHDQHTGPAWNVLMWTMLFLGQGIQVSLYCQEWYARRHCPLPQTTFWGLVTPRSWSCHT

SOAT2 [2] = molecular target: T2, SOAT2 (Homo sapiens, UniProt O75908); assay: Enzyme-based SOAT assay, microsomes from hSOAT2-CHO cells (Potter-type homogenizer); assay type: biochemical
T2 construct: expressed in transfected cells; host or cells: CHO cells (AC29, SOAT-deficient)
T2 sequence (O75908 1-522): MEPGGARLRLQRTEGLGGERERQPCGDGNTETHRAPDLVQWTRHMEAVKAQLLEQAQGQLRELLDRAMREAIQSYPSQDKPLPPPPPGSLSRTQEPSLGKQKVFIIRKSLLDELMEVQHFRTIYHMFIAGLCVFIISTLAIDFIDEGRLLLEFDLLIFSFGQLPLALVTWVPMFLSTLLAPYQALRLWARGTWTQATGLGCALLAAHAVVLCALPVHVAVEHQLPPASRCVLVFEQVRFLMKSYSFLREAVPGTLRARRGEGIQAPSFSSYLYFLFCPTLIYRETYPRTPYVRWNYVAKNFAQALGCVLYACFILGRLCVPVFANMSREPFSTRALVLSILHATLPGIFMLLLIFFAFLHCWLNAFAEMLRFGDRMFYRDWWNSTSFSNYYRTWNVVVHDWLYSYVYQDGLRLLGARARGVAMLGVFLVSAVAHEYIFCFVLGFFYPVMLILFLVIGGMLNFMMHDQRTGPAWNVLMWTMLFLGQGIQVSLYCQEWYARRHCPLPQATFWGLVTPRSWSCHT
Protocol: An enzyme source from SOAT1-/SOAT2-CHO cells using a Potter-type homogenizer was prepared using our established method[18]. Briefly, SOAT1 or SOAT2-CHO cells (2.0 × 10^8 cells) were homogenized in 5 ml cold buffered sucrose solution (pH 7.2, 100 mM sucrose, 50 mM KCl, 40 mM KH2PO4, and 30 mM EDTA, hereafter referred to as Buffer A) including protease inhibitors (Complete mini (Roche)) in the Potter-type homogenizer. The microsomal fraction was pelleted by centrifugation at 100,000 × g at 4.0 °C for 1.0 h (TLA110, Beckman Coulter), resuspended in the same buffer at a concentration of 5.0 mg protein/ml, and stored at −80 °C until used.
SOAT1 and SOAT2 activities were measured using fractionation prepared as described above as an enzyme source[18]. Briefly, an assay mixture was made containing 500 µg BSA (fatty acid free) and [1-^14C]oleoyl-CoA (20 µM, 3.7 kBq). A test sample (5.0 µl in methanol solution) and microsomes or the ER fractionation of SOAT1- and SOAT2-CHO cells in a total volume of 200 µl Buffer A was incubated at 37 °C. The SOAT reaction was started by adding [1-^14C]oleoyl-CoA. After a 5-min incubation, the reaction was stopped by adding chloroform: methanol (2:1, 1.2 ml). […] After the organic solvent was removed by evaporation, lipids were separated on a TLC plate and the radioactivity of [^14C]CE was measured by our established method[18].

SOAT2 [3] = molecular target: T2, SOAT2; assay: [14C]CE synthesis in intact hSOAT2-CHO cells (cell-based assay)
Protocol: CHO cells (AC29 cells, SOAT-deficient cells)[37] expressing the SOAT1 or SOAT2 gene from African Green monkeys and humans were cultured by the method described previously.
The assay for the synthesis of [^14C]cholesteryl ester (CE) from [^14C]oleic acid in intact SOAT1- or SOAT2-CHO cells was performed according to our established method.

SOAT1 [4] = molecular target: T3, SOAT1 (Mus musculus, UniProt Q61263); assay: Immunofluorescence staining of SOAT1 and Biotin-Beau in mouse peritoneal macrophages; assay type: cell-based; conditions: Biotin-Beau 9.8 µM
T3 construct: endogenous in cells; host or cells: primary mouse peritoneal macrophages (ICR mice)
T3 sequence (Q61263 1-540): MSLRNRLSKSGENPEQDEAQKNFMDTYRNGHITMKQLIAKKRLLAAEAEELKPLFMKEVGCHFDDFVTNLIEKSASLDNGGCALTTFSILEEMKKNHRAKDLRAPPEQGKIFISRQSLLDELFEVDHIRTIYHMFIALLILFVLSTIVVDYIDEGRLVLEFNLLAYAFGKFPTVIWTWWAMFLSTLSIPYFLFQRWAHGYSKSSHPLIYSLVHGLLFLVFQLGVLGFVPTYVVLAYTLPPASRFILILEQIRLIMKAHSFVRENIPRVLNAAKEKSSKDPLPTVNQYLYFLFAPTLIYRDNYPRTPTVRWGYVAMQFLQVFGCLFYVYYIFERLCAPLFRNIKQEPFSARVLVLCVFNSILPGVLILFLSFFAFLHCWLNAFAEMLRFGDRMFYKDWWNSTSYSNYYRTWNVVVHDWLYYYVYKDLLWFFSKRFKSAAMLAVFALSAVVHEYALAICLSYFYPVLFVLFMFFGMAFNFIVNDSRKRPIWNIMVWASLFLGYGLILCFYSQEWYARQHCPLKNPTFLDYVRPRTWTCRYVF
From the text: Supplementary Experiment Methods
Goat anti-rabbit IgG conjugated to fluorescein isothiocyanate (FITC) was purchased from Sigma-Aldrich (St. Louis, MO). Hank’s balanced salt solution was purchased from Nissui Seiyaku (Tokyo, Japan). Streptavidin conjugated to Alexa Fluor 546 was purchased from Thermo Fisher Scientific (Wa l t h a m , M A). […]
Immunofluorescence staining of SOAT1 and Biotin-Beau in mouse peritoneal […]
Mouse peritoneal macrophages from ICR mice (Japan SLC, Inc., Japan) were prepared as described previously1. Briefly, primary mouse peritoneal macrophages (2.0 x 10^5 cells) with liposomes in each well of a tissue culture chamber (LAB-TEK 8-chamber) were incubated at 37°C in 5.0% CO 2. After a 14-h incubation, cells were washed three times with PBS, fixed with 3.7% formalin for 10 min, and permeabilized with PBS containing 0.10% Tr i t o n X-100 at room temperature for 20 min. […]
After a 1-h incubation, cells were stained with the secondary antibody, a goat anti-rabbit IgG conjugated to FITC ([…]) and streptavidin conjugated to Alexa Fluor 546 (1.0 µg/ml) in blocking buffer, for 1.0 h. Cells were washed three times after the incubation and analyzed with confocal laser scanning microscopy (LSM-510 META, Carl Zeiss, Germany). Images were analyzed with a Zeiss LSM Image Browser (Version 3.5.0.376) […]

SOAT1 [5] = molecular target: T4, SOAT1 (Chlorocebus aethiops, UniProt O77760); assay: Interaction of Biotin-Beau-immobilized beads with SOAT1 protein (SDS-PAGE, Western blotting); assay type: binding, African green monkey; conditions: microsomes from SOAT1-CHO cells, band at approximately 53 kDa, none from AC29 cells or control beads
T4 construct: expressed in transfected cells; host or cells: CHO cells (AC29, SOAT-deficient)
T4 sequence (O77760 1-550): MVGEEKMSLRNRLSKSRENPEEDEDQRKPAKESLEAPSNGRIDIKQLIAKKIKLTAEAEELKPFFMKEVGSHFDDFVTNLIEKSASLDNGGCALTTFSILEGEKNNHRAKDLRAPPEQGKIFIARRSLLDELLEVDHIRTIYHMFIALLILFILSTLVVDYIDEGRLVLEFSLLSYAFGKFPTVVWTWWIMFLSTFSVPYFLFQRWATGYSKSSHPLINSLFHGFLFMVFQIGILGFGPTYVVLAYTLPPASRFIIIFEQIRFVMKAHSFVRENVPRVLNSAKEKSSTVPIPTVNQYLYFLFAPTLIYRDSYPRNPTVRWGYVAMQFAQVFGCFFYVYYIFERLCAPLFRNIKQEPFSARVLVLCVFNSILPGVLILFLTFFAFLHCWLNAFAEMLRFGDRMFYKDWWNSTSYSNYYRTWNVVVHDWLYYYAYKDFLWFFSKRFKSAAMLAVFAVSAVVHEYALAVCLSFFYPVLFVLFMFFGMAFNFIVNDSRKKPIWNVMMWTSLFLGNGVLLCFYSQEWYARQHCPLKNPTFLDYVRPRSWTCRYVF
From the text: The direct interaction between beauveriolide and SOAT1 was investigated. […] Therefore, Biotin-Beau may be employed as a useful bio-probe to investigate interactions between SOAT1 and beauveriolide. Biotin-Beau was attached to acrylamide-based streptavidin beads, and microsomes prepared from SOAT1-CHO cells and AC29 cells (control, SOAT-deficient CHO cells) were applied to the beads. After washing the beads, bound proteins were recovered with Laemmli sample buffer, separated by SDS-PAGE, and stained with the SOAT1 antibody. […] However, no protein was observed from control AC29 cells (lane (1)) or control beads (no Biotin-Beau-carrying beads) (lane (3)).
The microsomal fraction (500 µg protein in 100 µl buffer A) prepared from AC29 (SOAT-deficient CHO cells) or amgSOAT1-CHO cells using the Potter-type homogenizer as described above were mixed with 0.10% (v/v) Triton X-100 on ice for 10 min. Biotin-Beau (10 nmol)[11] was attached to acrylamide-based streptavidin beads (5.0 nmol)[39]. Microsomes (500 µg) prepared from AC29 cells or SOAT1-CHO cells were added to Biotin-Beau-carrying beads and mixed well at 4.0 °C for 1.0 h with a rotator. The beads were collected by centrifugation at 1,000 rpm at 4.0 °C for 5.0 min and washed three times with PBS (300 µl). […] After separation by SDS-PAGE, SOAT1 protein levels was measured as described above.

SOAT1 [6] = molecular target: T4, SOAT1; conditions: enzyme-based assay; African green monkey; cited from earlier work
SOAT1 [7] = molecular target: T4, SOAT1; conditions: cited from earlier work
SOAT2 [8] = molecular target: T1, SOAT2; conditions: cell-based assay; African green monkey; cited from earlier work
SOAT1 and SOAT2 = test system: SOAT1 and SOAT2; parameters: method as in PMID 14617738, PMID 17390588, PMID 16820149, PMID 16730694, PMID 16626720; conditions: cited from earlier work

CCCC[C@H](C)[C@@H]1CC(=O)N[C@@H](Cc2ccccc2)C(=O)N[C@@H](C)C(=O)N[C@H]([C@@H](C)CC)C(=O)O1 [Beauveriolide III]
effect on atherosclerotic lesions (atherosclerotic lesions): reducing atherosclerotic lesions in the aortae and hearts

CCCC[C@H](C)[C@@H]1CC(=O)N[C@@H](Cc2ccccc2)C(=O)N[C@@H](C)C(=O)N[C@H](CC(C)C)C(=O)O1 [Beauveriolide I]
IC50 (SOAT2 [1]): 1.9 µM
IC50 (SOAT2 [2]): 1.1 µM
IC50 (SOAT2 [3]): > 20 µM

CCCC[C@H](C)[C@@H]1CC(=O)N[C@@H](C(c2ccccc2)c2ccccc2)C(=O)N[C@H](Cn2cc(CNC(=O)CCCCNC(=O)CCCC[C@@H]3SC[C@@H]4NC(=O)N[C@@H]43)nn2)C(=O)N[C@H](C2CCCCC2)C(=O)O1 [Biotin-labeled beauveriolide]
cellular localization relative to SOAT1 (SOAT1 [4]): colocalized with a restricted area of SOAT1 protein distribution
IC50 (SOAT2 [1]): 8 µM
binding to SOAT1 protein (SOAT1 [5]): bound to the SOAT1 protein
binding to SOAT1 protein (SOAT1 [5]; listed as Biotin-Beau): directly binds to the SOAT1 protein
IC50 (SOAT1 [6]): 0.6 µM
SI (type) (SOAT1 [6]): SOAT1 (SOAT1-selective type, SI < −1.00)
effect on CE synthesis (SOAT1 [7]; cell-based assay using SOAT1-/SOAT2-CHO cells): no effect on CE synthesis
IC50 (SOAT1 [7]; cell-based assay, African green monkey): > 10 µM
IC50 (SOAT2 [8]): > 10 µM

CSc1cc(C)nc(SC)c1NC(=O)CN1CCN(CCSc2nc3ccccc3[nH]2)CC1 [K-604]
group of SOAT inhibitor from SI values (SOAT1 and SOAT2): SOAT1-selective inhibitors (SOAT1-selective inhibitors (SI, <−1.00))

CC(C)c1cc(C(C)C)c(CC(=O)NS(=O)(=O)Oc2c(C(C)C)cccc2C(C)C)c(C(C)C)c1 [avasimibe]
group of SOAT inhibitor from SI values (SOAT1 and SOAT2): dual inhibitors (dual inhibitors (−1.00 ≤ SI ≤+1.00) inhibiting SOAT1 and SOAT2)

CCCCCCCCN1CCc2c(C)c(CC(=O)O)c(C)c(NC(=O)C(C)(C)C)c21 [pactimibe]
group of SOAT inhibitor from SI values (SOAT1 and SOAT2): dual inhibitors (dual inhibitors (−1.00 ≤ SI ≤+1.00) inhibiting SOAT1 and SOAT2)

Reference: article PMC5482845 (Scientific Reports, 2017)
